One series deals with T1, FLK-1 receptor (Mus musculus, UniProt P35918).
T1 construct: expressed in transfected cells; host or cells: NIH3T3 C7#3
Kind of series: ELISA assay measuring the kinase activity of the FLK-1 receptor in cells engineered to express FLK-1. It counts as cell-based. The following applies: NIH3T3 C7#3 FLK-1 expressing cells, VEGF stimulation, phosphotyrosine ELISA. How it is done:
An ELISA assay was conducted to measure the kinase activity of the FLK-1 receptor and more specifically, the inhibition or activation of TK activity on the FLK-1 receptor. Specifically, the following assay was conducted to measure kinase activity of the FLK-1 receptor in cells genetically engineered to express FLK-1.
(11) NIH3T3 C7#3 Cells (FLK-1 expressing cells);
The following protocol was used for conducting the assay:
1. Coat Corning 96-well elisa plates with 1.0 μg per well Cappel Anti-rabbit IgG antibody in 0.1 M Na2CO3 pH 9.6. Bring final volume to 150 μL per well. Coat plates overnight at 4° C. Plates can be kept up to two weeks when stored at 4° C.
2. Grow cells in Growth media (DMEM, supplemental with 2.0 mM L-Glutamine, 10% FBS) in suitable culture dishes until confluent at 37° C., 5% CO2.
3. Harvest cells by trypsinization and seed in Corning 25850 polystyrene 96-well roundbottom cell plates, 25.000 cells/well in 200 μL of growth media.
4. Grow cells at least one day at 37° C., 5% CO2.
5. Wash cells-with D-PBS 1×.
6. Add 200 μL/well of starvation media (DMEM, 2.0 mM 1-Glutamine, 0.1% FBS). Incubate overnight at 37° C., 5% CO2.
7. Dilute Compounds 1:20 in polypropylene 96 well plates using starvation media. Dilute dimethylsulfoxide 1:20 for use in control wells.
8. Remove starvation media from 96 well cell culture plates and add 162 μL of fresh starvation media to each well.
9. Add 18 μL of 1:20 diluted Compound dilution (from step 7) to each well plus the 1:20 dimethylsulfoxide dilution to the control wells (+/− VEGF), for a final dilution of 1:200 after cell stimulation. Final dimethylsulfoxide is 0.5%. Incubate the plate at 37° C., 5% CO2 for two hours.
10. Remove unbound antibody from ELISA plates by inverting plate to remove liquid. Wash 3 times with TBSW+0.5% ethanolamine, pH 7.0. Pat the plate on a paper towel to remove excess liquid and bubbles.
11. Block plates with TBSW+0.5% Ethanolamine, pH 7.0, 150 μL per well. Incubate plate thirty minutes while shaking on a microliter plate shaker.
12. Wash plate 3 times as described in step 10.
13. […] Bring final volume to 150 μL/well with TBSW+0.5% ethanolamine pH 7.0. Incubate plate for thirty minutes while shaking.
14. Add 180 μL starvation medium to the cells and stimulate cells with 20 μL/well 10.0 mM sodium ortho vanadate and 500 ng/mL VEGF (resulting in a final concentration of 1.0 mM sodium ortho vanadate and 50 ng/mL VEGF per well) for eight minutes at 37° C., 5% CO2. Negative control wells receive only starvation medium.
15. After eight minutes, media should be removed from the cells and washed one time with 200 μL/well PBS.
16. Lyse cells in 150 μL/well HNTG while shaking at room temperature for five minutes. HNTG formulation includes sodium ortho vanadate, sodium pyro phosphate and EDTA.
17. Wash ELISA plate three times as described in step 10.
18. Transfer cell lysates from the cell plate to ELISA plate and incubate while shaking for two hours. To transfer cell lysate pipette up and down while scrapping the wells.
19. Wash plate three times as described in step 10.
20. Incubate ELISA plate with 0.02 μg/well UB40 in TBSW+05% ethanolamine. Bring final volume to 150 μL/well. Incubate while shaking for 30 minutes.
21. Wash plate three times as described in step 10.
22. Incubate ELISA plate with 1:10,000 diluted EIA grade goat anti-mouse IgG conjugated horseradish peroxidase in TBSW+0.5% ethanolamine, pH 7.0. Bring final volume to 150 μL/well. Incubate while shaking for thirty minutes.
23. Wash plate as described in step 10.
24. Add 100 μL of ABTS/H2O2 solution to well. Incubate ten minutes while shaking.
25. Add 100 μL of 0.2 M HCl for 0.1 M HCl final to stop the color development reaction. Shake 1 minute at room temperature. Remove bubbles with slow stream of air and read the ELISA plate in an ELISA plate reader at 410 nm.
The IC50 values were measured for several of the compounds of the invention.
(In an ELISA, binding on a coated surface is turned into a signal by an enzyme label.)

Series [1] concerns the target Myc-GyrB-FGFR fusion protein (Homo sapiens, UniProt P11362). Kind of series: ELISA assay measuring the kinase activity of the FGF receptor (Myc-GyrB-FGFR from COS/FGFR cell lysate). The format is biochemical. The following applies: 7 μM ATP.
Protocol: The following protocol describes the reagents and procedures used to analyze protein-tyrosine kinase activity of the Myc-GyrB-FGFR fusion protein.
All of the following steps are conducted at room temperature unless it is specifically indicated. All ELISA plate washing is by rinsing 4× with TBST.
Coat Corning 96 well ELISA plates with 1.0 μg/well of Rabbit αGyrB antibody in PBS for a total well volume of 100 μL. Store overnight at 4° C.
Remove unbound Rabbit antibody by inverting plate to remove liquid. Pat plate on a paper towel to remove excess liquid and bubbles
Add 100 μL of Blocking Buffer (TBB) to each well. Incubate while shaking on a microliter plate shaker at room temperature for 30 min.
Wash 4× with TBST. Pat plate on a paper towel to remove excess liquid and bubbles.
Add 15 μg COS/FGFR cell lysate Myc-GyrB-FGFR sources per well in HNTG for a final volume of 100 μL per well. Incubate while shaking on a micro-liter plate shaker at room temperature for 2 hours.
Wash 4× with TBST as described in step 4.
Add 80 μL of 1× kinase buffer per well.
Dilute compunds/extracts 1:10 (or as stated otherwise) in 1× kinase buffer +1% DMSO in a polypropylene 96 well plate.
At this point diluted Compounds/Extracts are added to the ELISA plate. […]
Read assay on Dynatech MR7000 ELISA Plate Reader.
The test system of series [2] is HUV-EC-C cells; aFGF (ECGF). Description: HUVEC-aFGF 3H-thymidine incorporation assay. The format is cell-based, human. (Dividing cells build labelled thymidine or BrdU into new DNA.)
Protocol: The following protocol is used to measure a compound's activity against VEGF and aFGF, all of which are expressed by HUVEC cells.
Repeat the wash two more times with D-PBS, resuspend the cells in about 1 mL assay medium/15 cm^2 of tissue culture flask.
Add cells to 96-well flat-bottom plates at 100 μL/well or 0.8-1.0×10^4 cells/well; incubate ˜24h at 37° C., 5% CO^2.
Use the same assay medium as mentioned in day 0, step 2 above. Titrations are made by adding 90 μL/well of drug at 200 μM (4× the final well concentration) to the top well of a particular plate column. Since the stock drug concentration is usually 20 mM in DMSO, the 200 μM drug concentration contains 2% DMSO.
Therefore, diluent made up to 2% DMSO in assay medium (F12K+0.5% fetal bovine serum) is used as diluent for the drug titrations in order to dilute the drug but keep the DMSO concentration constant. Add this diluent to the remaining wells in the column at 60 μL/well. Take 60 μL from the 120 μL of 200 μM drug dilution in the top well of the column and mix with the 60 μL in the second well of the column. Take 60 μL from this well and mix with the 60 μL in the third well of the column, and so on until two-fold titrations are completed. When the next-to-the-last well is mixed, take 60 μL of the 120 μL in this well and discard it. Leave the last well with 60 μL of DMSO/media diluent as a non-drug-containing control. Make 9 columns of titrated drug, enough for triplicate wells each for 1) VEGF (obtained from Pepro Tech Inc., catalogue no. […] ECGF comes as a preparation with sodium heparin.
Transfer 50 μL/well of the drug dilutions to the 96-well assay plates containing the 0.8-1.0×10^4 cells/100 μL/well of the HUV-EC-C cells from day 0. and incubate ˜2 h at 37° C., 5% CO2.
In triplicate, add 50 μL/well of 80 μg/mL VEGF, 20 ng/mL ECGF, or media control to each drug condition. As with the drugs, the growth factor concentrations are 4× the desired final concentration. Use the assay media from day 0 step 2 to make the concentrations of growth factors.
Freeze plates overnight at 20° C.

Where two headings read alike, the source gives them in different places.

T1 sequence (P35918 20-1345): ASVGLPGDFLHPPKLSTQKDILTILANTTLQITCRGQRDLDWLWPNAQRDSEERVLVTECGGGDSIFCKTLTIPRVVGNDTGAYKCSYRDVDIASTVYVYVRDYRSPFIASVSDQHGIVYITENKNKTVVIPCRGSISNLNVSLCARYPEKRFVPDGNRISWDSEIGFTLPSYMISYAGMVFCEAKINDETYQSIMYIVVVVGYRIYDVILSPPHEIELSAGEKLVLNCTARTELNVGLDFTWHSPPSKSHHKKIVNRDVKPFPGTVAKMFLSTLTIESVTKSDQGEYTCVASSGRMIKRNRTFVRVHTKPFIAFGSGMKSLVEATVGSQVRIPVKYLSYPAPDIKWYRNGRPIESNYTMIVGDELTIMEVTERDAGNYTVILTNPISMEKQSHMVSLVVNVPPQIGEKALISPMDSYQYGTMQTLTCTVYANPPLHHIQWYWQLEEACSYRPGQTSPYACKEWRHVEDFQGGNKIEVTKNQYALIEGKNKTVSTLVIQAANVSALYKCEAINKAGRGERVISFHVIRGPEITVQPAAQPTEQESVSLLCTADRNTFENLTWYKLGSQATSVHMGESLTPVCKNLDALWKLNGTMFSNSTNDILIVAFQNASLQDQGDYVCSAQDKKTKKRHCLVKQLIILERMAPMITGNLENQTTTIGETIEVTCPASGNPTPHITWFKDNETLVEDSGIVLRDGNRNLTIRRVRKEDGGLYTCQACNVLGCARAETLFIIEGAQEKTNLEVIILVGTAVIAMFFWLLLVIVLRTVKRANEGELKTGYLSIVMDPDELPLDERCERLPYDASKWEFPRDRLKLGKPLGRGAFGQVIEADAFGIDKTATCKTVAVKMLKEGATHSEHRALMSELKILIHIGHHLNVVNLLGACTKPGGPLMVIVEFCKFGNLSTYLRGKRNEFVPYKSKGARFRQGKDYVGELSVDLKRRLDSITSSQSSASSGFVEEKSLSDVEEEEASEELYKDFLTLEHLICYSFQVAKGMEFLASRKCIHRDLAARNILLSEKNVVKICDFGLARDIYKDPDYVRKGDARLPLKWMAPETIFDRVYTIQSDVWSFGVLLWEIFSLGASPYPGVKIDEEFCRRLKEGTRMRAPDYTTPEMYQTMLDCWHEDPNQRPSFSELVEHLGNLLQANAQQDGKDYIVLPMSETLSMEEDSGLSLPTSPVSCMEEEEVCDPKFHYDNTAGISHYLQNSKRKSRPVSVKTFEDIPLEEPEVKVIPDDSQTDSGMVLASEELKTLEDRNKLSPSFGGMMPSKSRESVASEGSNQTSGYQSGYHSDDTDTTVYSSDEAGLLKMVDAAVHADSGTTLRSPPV
Myc-GyrB-FGFR fusion protein, sequence (P11362 398-822): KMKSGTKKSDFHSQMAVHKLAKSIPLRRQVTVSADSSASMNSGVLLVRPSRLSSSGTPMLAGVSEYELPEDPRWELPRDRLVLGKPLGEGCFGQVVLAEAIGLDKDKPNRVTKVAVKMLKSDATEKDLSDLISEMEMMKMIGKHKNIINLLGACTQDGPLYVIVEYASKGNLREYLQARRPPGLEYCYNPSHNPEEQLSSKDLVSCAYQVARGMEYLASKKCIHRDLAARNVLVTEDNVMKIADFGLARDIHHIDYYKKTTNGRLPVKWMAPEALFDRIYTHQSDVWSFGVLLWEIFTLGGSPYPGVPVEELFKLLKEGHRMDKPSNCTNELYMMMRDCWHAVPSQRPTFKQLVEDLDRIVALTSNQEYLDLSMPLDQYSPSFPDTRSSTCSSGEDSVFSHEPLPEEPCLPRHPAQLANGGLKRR

As a reminder, the IC50 is the concentration that inhibits the measured activity by half. Low readings indicate greater potency, high ones weaker potency. For `O=C(O)CCc1c(C=C2C(=O)Nc3ccc(Cl)cc32)[nH]c2c1CCCC2` [IN-002, 3-[2-(5-Chloro-2-oxo-1,2-dihydro-indol-3-ylidenemethyl)-4,5.6,7-tetrahydro-1H-indol-3-yl]-propionic acid], the IC50 stood at 22 nM against FLK-1 receptor, 370 nM in series [1] and 250 nM in series [2].
What is called melting point is the temperature, or range, at which the solid turns liquid. In the case of `O=C(CCc1c(C=C2C(=O)Nc3ccccc32)[nH]c2c1CCCC2)NCCN1CCOCC1` [IN-013, N-(2-Morpholin-4-yl-ethyl)-3-[2-(2-oxo-1,2-dihydro-indol-3-ylidenemethyl)-4,5,6,7-tetrahydro-1H-indol-3-yl]-propionamide], the melting point fell in the range of 256 to 258 °C. On FLK-1 receptor, the half-inhibitory concentration (IC50) came out at 630 nM. Further, in series [2] (Homo sapiens), the IC50 was 2100 nM.

The values are drawn from patent US20040067531A1, “Methods of modulating protein tyrosine kinase function with substituted indolinone compounds” (SUGEN, INC., priority 1997, published 2004).
